Values quoted from earlier work as cited in patent publication US8597613B2, “Radiolabeled lymphatic staining agents and methods for making” (Iso-Tex Diagnostics, Inc, priority 2004, dated 2013).

Conditions: 0.1-0.5 cc injected into the breast following wire-localization procedures

## CN(C)c1ccc2nc3ccc(=[N+](C)C)cc-3sc2c1 [methylene blue, phenothiazin-5-ium-3,7-bis(dimethylamino)-chloride]
  reported adverse events: no reported adverse events
